Laboratory results published in ChEMBL document CHEMBL4014333, “Discovery of Small Molecules for Repressing Cap-Independent Translation of Human Vascular Endothelial Growth Factor (hVEGF) as Novel Antitumor Agents” (J Med Chem, 2017).
The source made the active and inactive calls. The rule behind the calls is not given here.

Columns and labels:
Homo sapiens [1] = species: Homo sapiens; test: Binding affinity to internal ribosome entry site A RNA G-quadruplex region of human VEGF-A 5'-UTR at 10 uM by PCR stop assay
MCF7 [2] = test: Cytotoxicity against human MCF7 cells after 48 hrs relative to control; assay type: cell-based; conditions: mcf7, 48 h
Homo sapiens [3] = species: Homo sapiens; test: Inhibition of FLAG-labeled BG4 antibody binding to human wild type internal ribosome entry site A RNA G-quadruplex at 1.25 to 10 uM preincubated with RNA followed by antibody addition by pull-down assay
[4] = Binding affinity to RNA hairpin (unknown origin) at 1 uM after 24 hrs by spectrophotometric method
Homo sapiens [5] = species: Homo sapiens; test: Binding affinity to human 5'-AGGAGCCGCAGCCGGAAGAGGAGAGGGGGCCGC-3' DNA at 1 uM after 24 hrs by spectrophotometric method
Homo sapiens [6] = species: Homo sapiens; test: Binding affinity to 5'- FAM-labeled human 5'-UGAUGAGUGUGAGUAGUA-3' RNA at 100 uM after 5 mins by MST analysis
MCF7 [7] = test: Antitumor activity against human MCF7 cells xenografted in nude Balb/c mouse assessed as tumor volume at 7.5 mg/kg, ip qd for 20 days (Rvb >700 mm3); assay type: functional
MCF7 [8] = test: Effect on BG4 protein expression in human MCF7 cells up to 1.5 uM by Western blot method; assay type: ADME, cell-based
[9] = Binding affinity to RNA (unknown origin) at 1 uM after 24 hrs by spectrophotometric method
Homo sapiens [10] = species: Homo sapiens; test: Binding affinity to internal ribosome entry site A RNA G-quadruplex region of VEGF-A protein in human MDA-MB-231 cells assessed as inhibition of VEGF-A protein induced cell migration at 0.5 to 8 uM after 10 hrs by RTCA method; assay type: cell-based
Homo sapiens [11] = species: Homo sapiens; test: Inhibition of BG4 protein binding to human wild type internal ribosome entry site A RNA G-quadruplex in MCF7 cells transfected with pcDNA3.1-BG4 plasmid at 2.5 to 5 uM after 24 hrs by qRT-PCR analysis; assay type: cell-based
Homo sapiens [12] = species: Homo sapiens; test: Destabilization of human 5'-UGAUGAGUGUGAGUAGUA-3' RNA expressed in MCF7 cells assessed as down regulation of VEGF-A translation at 0.1875 to 1.5 uM after 24 hrs by dual-luciferase reporter gene assay; assay type: cell-based
Homo sapiens [13] = species: Homo sapiens; test: Destabilization of human VEGF-A promoter DNA up to 5 uM by CD spectral analysis
Homo sapiens [14] = species: Homo sapiens; test: Binding affinity to internal ribosome entry site A RNA G-quadruplex region of VEGF-A protein in human MDA-MB-231 cells assessed as VEGF-A protein induced cell migration at 3 uM after 24 hrs by MTT dye based Transwell assay relative to control
Homo sapiens [15] = species: Homo sapiens; test: Selectivity ratio of Kd for biotin labeled human 5'-UGAUGAGUGUGAGGAGGA-3' RNA G-quadruplex to Kd for biotin-labeled human wild type internal ribosome entry site A RNA G-quadruplex
[16] = Binding affinity to 5'- FAM-labeled human 5'-UGAUGAGUGUGAGGAGGA-3' RNA G-quadruplex after 5 mins by MST analysis
Homo sapiens [17] = species: Homo sapiens; test: Inhibition of BG4 antibody binding to internal ribosome entry site A RNA G-quadruplex in human MCF7 cells preincubated for 24 hrs followed by BG4 antibody addition measured after 12 hrs by dot blot hybridization assay; assay type: cell-based
[18] = Binding affinity to ADAM10 RNA G-quadruplex (unknown origin) at 1 uM after 24 hrs by spectrophotometric method
[19] = Binding affinity to TERRA RNA G-quadruplex (unknown origin) at 1 uM after 24 hrs by spectrophotometric method
Homo sapiens [20] = species: Homo sapiens; test: Destabilization of human wild type internal ribosome entry site A RNA G-quadruplex expressed in MCF7 cells assessed as down regulation of VEGF-A translation at 1.5 uM after 24 hrs by dual-luciferase reporter gene assay relative to control; assay type: cell-based
[21] = Binding affinity to biotin-labeled human wild type internal ribosome entry site A RNA G-quadruplex by SPR analysis
Homo sapiens [22] = species: Homo sapiens; test: Inhibition of BG4 protein binding to human wild type internal ribosome entry site A RNA G-quadruplex in MCF7 cells transfected with pcDNA3.1-BG4 plasmid at 2.5 to 5 uM after 24 hrs by RT-PCR analysis; assay type: cell-based
MCF7 [23] = test: Cytotoxicity against human MCF7 cells after 24 hrs relative to control; assay type: cell-based; conditions: mcf7, 24 h
Homo sapiens [24] = species: Homo sapiens; test: Inhibition of BG4 antibody binding to biotin-labeled human wild type internal ribosome entry site A RNA G-quadruplex at 1.25 to 10 uM after 3 hrs by filter binding assay
Homo sapiens [25] = species: Homo sapiens; test: Binding affinity to human 5'-UCGGGCCGGGAGGAGCCGCAGCCGGAA-3' […] at 1 uM after 24 hrs by spectrophotometric method
MCF7 [26] = test: Antitumor activity against human MCF7 cells xenografted in nude Balb/c mouse assessed as reduction in tumor weight at 7.5 mg/kg, ip qd for 20 days relative to control; assay type: functional; set-up: scale not given: the % may be the effect or the level left
[27] = Selectivity ratio of Kd for biotin-labeled hairpin DNA (unknown origin) to Kd for biotin-labeled human wild type internal ribosome entry site A RNA G-quadruplex
Homo sapiens [28] = species: Homo sapiens; test: Destabilization of human wild type internal ribosome entry site A RNA G-quadruplex expressed in human MCF7 cells assessed as decrease in VEGF-A protein expression at 1.5 uM after 48 hrs by ELISA relative to control; assay type: cell-based; set-up: scale not given: the % may be the effect or the level left
MCF7 [29] = test: Effect on human VEGF-A transcription expressed in human MCF7 cells assessed as Met luciferase gene expression at 0.1875 to 3 uM by qRT-PCR analysis; assay type: functional, cell-based
Homo sapiens [30] = species: Homo sapiens; test: Binding affinity to wild type human internal ribosome entry site A RNA G-quadruplex at 1 uM after 24 hrs by spectrophotometric method
Homo sapiens [31] = species: Homo sapiens; test: Destabilization of human internal ribosome entry site A RNA G-quadruplex by CD spectral analysis
[32] = Binding affinity to 5'- FAM-labeled 5'-GGAGGAGGGGGAGGAGGA-3' DNA (unknown origin) up to 60 uM after 5 mins by MST analysis
Homo sapiens [33] = species: Homo sapiens; test: Destabilization of human 5'-FAM-labeled 5'-UGAUGAGUGUGAGUAGUA-3' RNA up to 10 uM measured after 3 hrs by electrophoresis mobility shift assay
Homo sapiens [34] = species: Homo sapiens; test: Inhibition of NT-647 dye-labeled BG4 antibody binding to human 5'-UGAUGAGUGUGAGUAGUA-3' RNA by MST analysis
Homo sapiens [35] = species: Homo sapiens; test: Destabilization of human wild type internal ribosome entry site A RNA G-quadruplex expression in human MCF7 cells assessed as decrease in VEGF-A protein expression at 0.1875 to 3 uM by Western blot analysis; assay type: cell-based
[36] = Binding affinity to 5'- FAM-labeled c-Kit1 G-quadruplex DNA (unknown origin) up to 100 uM after 5 mins by MST analysis
[37] = Binding affinity to NRAS-RNA G-quadruplex (unknown origin) at 1 uM after 24 hrs by spectrophotometric method
Homo sapiens [38] = species: Homo sapiens; test: Destabilization of human 5'-UGAAGAGUGUGAGUAGUA-3' RNA expressed in MCF7 cells assessed as down regulation of VEGF-A translation at up to 1.5 uM after 24 hrs by dual-luciferase reporter gene assay; assay type: cell-based

For CCN(CC)CCOc1ccc(Nc2nc(-c3ccccc3NC(=O)CCN3CCN(C)CC3)nc3ccccc23)cc1, the Activity (Homo sapiens [1]) was “inactive”, the Activity (MCF7 [2]) was 82.7% and the inhibition (Homo sapiens [3]) was “Active”. The Activity [4] was “inactive”, the Activity (Homo sapiens [5]) was “inactive” and the Activity (Homo sapiens [6]) was “inactive”. The Activity (MCF7 [7]) was <300 mm3, the Activity (MCF7 [8]) was “Non-Toxic” and the Activity [9] was “inactive”. For the same molecule, the Activity (Homo sapiens [10]) was “inactive”, the inhibition (Homo sapiens [11]) was “Active” and the Activity (Homo sapiens [12]) was “inactive”. For the same molecule, the Activity (Homo sapiens [13]) was “Active”, the Activity (Homo sapiens [14]) was 25% and the Selectivity ratio (Homo sapiens [15]) was 4. The Kd [16] was 13.4 to 20.5 µM, the inhibition (Homo sapiens [17]) was “Dose-dependent effect” and the Activity [18] was “inactive”. For the same molecule, the Activity [19] was “inactive”, the Activity (Homo sapiens [20]) was 80% and the Kd [21] was 0.928 µM. For the same molecule, the inhibition (Homo sapiens [22]) was “Active”, the Activity (MCF7 [23]) was 65.5% and the inhibition (Homo sapiens [24]) was “Active”. For the same molecule, the Activity (Homo sapiens [25]) was “inactive”, the Activity (MCF7 [26]) was 60.1% and the Selectivity ratio [27] was 23. For the same molecule, the Activity (Homo sapiens [28]) was 75%, the Activity (MCF7 [29]) was “inactive” and the Activity (Homo sapiens [30]) was “Active”. The Activity (Homo sapiens [31]) was “Dose-dependent effect”, the Activity [32] was “Active” and the Activity (Homo sapiens [33]) was “inactive”. The inhibition (Homo sapiens [34]) was “Active”, the Activity (Homo sapiens [35]) was “Active” and the Activity [36] was “Active”. For the same molecule, the Activity [37] was “inactive” and the Activity (Homo sapiens [38]) was “inactive”.
